“And” between values parts separate entries of the source, which are not always exact repeats. Equal entries are not always repeated. Where two headings read alike, the source gives them in different places.
Tests used:
[1] = tested on: K-Ras mutant cancer cell lines HCT116; assay: Western blot of p53 and p21 expression in K-Ras mutant HCT116 cells; format: cell-based; details: Homo sapiens, HCT-116, HCT116, 10 μM
Procedure: To confirm whether the compounds prepared according to Examples 1 to 5 are effective for inhibiting SNAIL-p53 binding at cell level, the compound was treated into K-Ras mutant cancer cell lines HCT116 and results were analyzed by western blotting.
Oncogenic K-ras suppresses the p53 activity through SNAIL. In the cell line HCT116, SNAIL is always expressed by K-Ras mutation and bound to p53 to suppress normal activity of p53. If the K-Ras mutant cancer cell line HCT116 is treated with a compound for suppressing SNAIL-p53 binding, p53 is normally activated and more expressed, and target genes of p53 are induced.
First, western blotting was performed to detect expression of p53 and p21, which is a target gene of p53. All cell lines used in the present invention were obtained from ATCC, and maintained in 10% FBS-containing RPMI-1640 or DMEM. Protein was extracted with RIPA buffer solution and a membrane loaded with cell lysate through typical SDS-PAGE and gel transfer method was prepared. After blocking with 5% non-fat dry milk, the membrane was subjected into a typical western blot procedure with an antibody corresponding to each gene. Antibodies used herein were obtained from Cell signaling, SantaCruz. p53 activity was confirmed by expression of p21, which is a target gene of p53.

MDA-MB 468 = assay: Western blot of p21 expression in mutant p53 MDA-MB 468 cells; format: cell-based, human; details: for Expression ratio of gene to control, p21: DMSO control = 1.0; for Expression of p21 (target gene of p53): p53 mutant-type MDA-MB 468, FIG. 23
[2] = tested on: HCT116 (K-Ras mutant cancer cell line); assay: Cell death rate by tryphan blue cell counting, HCT116; format: cell-based
A549 cells = assay: Xenograft in vivo: A549 cells injected intraperitoneally into athymic mouse
Procedure: Athymic mouse was obtained from Daehan Biolink Co. Ltd, and raised under temperature and light conditions (20-23° C., cycle of 12 hours light/12 hours darkness) and fed with sterile diet and water freely. After 2 weeks, 1×10^7 A549 cells were inoculated into the athymic mouse (n=21) by intraperitoneal injection. After 2 weeks, each group was divided into three subgroups and PBS, and 10 mg/kg or 20 mg/kg of the compound 5o were intraperitoneally injected once per week for 10 weeks, and vitality thereof was measured. This animal test was approved by the Animal Protection Committee of Pusan National University, and performed according to a guideline presented by the same.

SNAIL-p53 binding = assay: GST pull down assay of SNAIL-p53 binding (Experimental Example 2); set-up: species or system human; details: FIG. 21
Procedure: GST pull down assay is a method for identifying a binding degree of two proteins. GST-fused SNAIL protein and p53 recombinant protein were prepared and treated with the compound 5o or 7a to identify a binding degree of GST-SNAIL protein and p53 protein. […] If MDM2 is over-expressed, proteolysis of p53 is induced to suppress apoptosis occurring through target genes of p53, and an […] of cells is induced. Although MDM2 is a representative control factor of p53, MDM2 is not applied to K-Ras mutant disease or mutant p53 containing disease.
To perform GST pull down assay, three human SNAIL fragments (residues 1-90, 91-112, and 113-264) and p53 fragments (1-93 and 93-292) were expressed in E. coli as GST-fusion protein. Each of the fragments was loaded on to GSH-agarose, washed, and then eluted using a buffer containing 20 mM reduced glutathione. The eluted fractions were purified using an anionexchange chromatography (HitrapQ). The recombinant human p53 protein (residues 94-292) was expressed in E. coli using the vector pET28A which contains a hexa-histidine tag at the C terminus. The p53 protein including the hexa-histidine tag was purified using Ni-NTA affinity and a size exclusion chromatography (Superdex 200). To confirm the direct binding between p53 and SNAIL, agarose-bead conjugated GST or GST-SNAIL was incubated with His-p539 (histidine-p53) in PBS for 45 minutes at 4° C.. After washing with PBS, the precipitated protein was subjected into SDS-PAGE and western blotting.

[3] = tested on: MKN45 (K-Ras wild type cancer cell line); assay: Cell death rate by tryphan blue cell counting, MKN45; format: cell-based
Excerpt: (§1) To confirm that the p53 induction of the compounds is related to K-Ras, A549 and HCT116, which are K-Ras mutant cancer cell lines, and MKN45, which is K-Ras wild type cancer cell line, were used.

[4] = tested on: A549 (K-Ras mutant cancer cell line); assay: Cell death rate by tryphan blue cell counting, A549; format: cell-based; details: A549 (A546 [sic])
Excerpt: as §1

[5] = tested on: SNAIL-mediated p53 suppression; assay: Effect on SNAIL-mediated p53 reduction in transfected cells; format: cell-based; details: SNAIL (or K-Ras) transfected cells
Procedure: Also, the effect of the chemicals on SNAIL-mediated p53 suppression was checked. As shown in FIGS. 10E and 10F, p53 reduction by co-transfection of SNAIL was blocked by treatment of chemicals by #3 and #9.
The reduction of p53 by SNAIL was confirmed in real time (see FIG. 13D). Expression of p53 in culture-media was checked and within 2 hours, the expression of p53 in media was detected (see FIG. 13E). Moreover, p53 was detected in cytosol as a vesicle-like-structure in SNAIL or K-Ras transfected cells, and finally detected in an extracellular region (see FIG. 13F). Meanwhile, SNAIL was located in vesicle of cytosol with p53 (see FIG. 17A).
Since p53 is reduced by vesicle-like transport, p53 expression was checked by disrupting cytoskeleton-network by Nocodazole (Noc). […] Despite of cytoplasmic vesicle-like staining of p53 in Noc-treated cells, cellular morphology was changed differentially from control cells (see FIG. 14B). Noc blocked the p53 reduction (see FIG. 14C). Median p53 was disappeared by Noc-treatment, whereas p53 was accumulated in cytoplasm as vesicle (see FIGS. 14D and 14E). Aph/Noc blocked the reduction of p53, which was not achieved by LMB (FIGS. 14F and 14G).

A549 and Capan-1 = assay: Expression of median (culture media) p53 in A549 and Capan-1; format: cell-based; details: A549 and Capan-1, FIG. 15B
Procedure: Also, protease inhibitor (PMSF) and endocytosis inhibitor (Brefeldin A; BFA) were treated into A549 and Capan-1.

[6] = DMSO control = 1.0, read-out: Protein expression ratio of compound to control, p21
[7] = DMSO control = 1.0, read-out: Protein expression ratio of compound to control, p53
[8] = 10 mg/kg i.p. once per week for 10 weeks
[9] = 20 mg/kg i.p. once per week for 10 weeks

CCCCCCCCNC1=CC(=O)c2c(OC)ccc(OC)c2C1=O [Compound 5h, 2-octylamino-5,8-dimethoxy-1,4-naphthoquinone]
melting point: 81 to 82 °C

CCCCCCCCCCNC1=CC(=O)c2c(OC)ccc(OC)c2C1=O [Compound 5j, 2-decylamino-5,8-dimethoxy-1,4-naphthoquinone]
fold induction at 10 µM [1, 6]: 5
fold induction at 10 µM [1, 7]: 1.3
melting point: 86 to 87 °C

COc1ccc(OC)c2c1C(=O)C=C(SCCO)C2=O [Compound 5k, 2-(2-hydroxyethylthio)-5,8-dimethoxy-1,4-naphthoquinone]
fold induction at 10 µM [1, 6]: 0.2
fold induction at 10 µM [1, 7]: 0.3
melting point: 117 to 118 °C

COc1ccc(OC)c2c1C(=O)C=C(SCCCCO)C2=O [Compound 5m, 2-(4-hydroxybutylthio)-5,8-dimethoxy-1,4-naphthoquinone]
fold induction at 10 µM [1, 6]: 0.1
fold induction at 10 µM [1, 7]: 0.8
melting point: 122 to 123 °C

COc1ccc(OC)c2c1C(=O)C=C(SCCC(=O)O)C2=O [Compound 5o, 3-(5,8-dimethoxy-1,4-dioxo-naphthalen-2-ylthio)propanoic acid]
Expression ratio of gene to control, p21 (MDA-MB 468; MDA-MB 468, 5 μM): 13.5
Expression ratio of gene to control, p21 (MDA-MB 468; MDA-MB 468, 10 μM): 25.9
Expression ratio of gene to control, p21 (MDA-MB 468; MDA-MB 468, 20 μM): 31.3
Expression of p21 (target gene of p53) (MDA-MB 468): strong
fold induction at 10 µM [1, 6]: 2.5
fold induction at 10 µM [1, 7]: 2.6
Cancer cell death rate of compounds with respect to control ([2]; 5 μM): 35 ± 3.2%
Cancer cell death rate of compounds with respect to control ([2]; 20 μM): 67 ± 2.5%
Tumor-caused death (survival) (A549 cells; 10 mg/kg and 20 mg/kg, 10 weeks, FIG. 24): tumor-caused death was prevented
Tumor development at tumor site A.C (A549 cells; [8]): 3 (regression)
Tumor development at tumor site Liver (A549 cells; [8]): 0
Tumor development at tumor site Lung (A549 cells; [8]): 0
Tumor development at tumor site Pancreas (A549 cells; [8]): 0
Tumor development at tumor site A.C (A549 cells; [9]): 2 (regression)
Tumor development at tumor site Liver (A549 cells; [9]): 0
Tumor development at tumor site Lung (A549 cells; [9]): 0
Tumor development at tumor site Pancreas (A549 cells; [9]): 0
Tumor in treated group (A549 cells; FIG. 25): almost no tumor
Overall anatomical abnormal finding according to weight loss or injection of the compound (A549 cells; FIG. 26): not observed
Binding between GST-SNAIL protein and p53 (SNAIL-p53 binding): substantially weak
Cancer cell death rate of compounds with respect to control ([3]; 5 μM): 10 ± 2.9%
Cancer cell death rate of compounds with respect to control ([3]; 20 μM): 18 ± 1.9%
Cancer cell death rate of compounds with respect to control ([4]; 5 μM): 30 ± 4.5%
Cancer cell death rate of compounds with respect to control ([4]; 20 μM): 62 ± 1.7%

COc1ccc(OC)c2c1C(=O)C=C(SCCCCCCCCCCC(=O)O)C2=O [Compound 5p, 11-(5,8-dimethoxy-1,4-dioxo-naphthalen-2-ylthio)undecanoic acid]
fold induction at 10 µM [1, 6]: 0.3
fold induction at 10 µM [1, 7]: 1.6
melting point: 146 to 147 °C

COc1ccc(OC)c2c1C(=O)C=C(SCCCCCCCCCCC(=O)OCC(C)C)C2=O [Compound 7a, isobutyl-11-(5,8-dimethoxy-1,4-dioxo-1,4-dihydronaphthalene-2-ylthio)undecanoate]
fold induction at 10 µM [1, 6]: 7.2
fold induction at 10 µM [1, 7]: 4.2
Cancer cell death rate of compounds with respect to control ([2]; 5 μM): 32 ± 2.1%
Cancer cell death rate of compounds with respect to control ([2]; 20 μM): 57 ± 2.8%
Binding between GST-SNAIL protein and p53 (SNAIL-p53 binding): substantially weak
Cancer cell death rate of compounds with respect to control ([3]; 5 μM): 1 ± 1.0%
Cancer cell death rate of compounds with respect to control ([3]; 20 μM): 3 ± 2.4%
Cancer cell death rate of compounds with respect to control ([4]; 5 μM): 23 ± 3.4%
Cancer cell death rate of compounds with respect to control ([4]; 20 μM): 45 ± 2.3%

COC(=O)Nc1nc2ccc(C(=O)c3cccs3)cc2[nH]1 [Nocodazole]
SNAIL-mediated p53 reduction [5]: blocked the SNAIL or K-Ras mediated p53 reduction

COc1ccc(C2=N[C@@H](c3ccc(Cl)cc3)[C@@H](c3ccc(Cl)cc3)N2C(=O)N2CCNC(=O)C2)c(OC(C)C)c1 [Nutlin-3, reference compound]
Expression ratio of gene to control, p21 (MDA-MB 468; MDA-MB 468, 10 μM): 0.9
Expression ratio of gene to control, p21 (MDA-MB 468; MDA-MB 468, 20 μM): 1.2
Expression of p21 (target gene of p53) (MDA-MB 468): did not affect p21
Cancer cell death rate of compounds with respect to control ([2]; 5 μM): 21 ± 2.4%
Cancer cell death rate of compounds with respect to control ([2]; 10 μM): 32% and 32 ± 2.9%
Cancer cell death rate of compounds with respect to control ([2]; 20 μM): 40 ± 3.1%
Binding between GST-SNAIL protein and p53 (SNAIL-p53 binding): did not inhibit SNAIL-p53 binding
Cancer cell death rate of compounds with respect to control ([3]; 5 μM): 28 ± 2.2%
Cancer cell death rate of compounds with respect to control ([3]; 10 μM): 38% and 38 ± 2.9%
Cancer cell death rate of compounds with respect to control ([3]; 20 μM): 47 ± 2.2%
Cancer cell death rate of compounds with respect to control ([4]; 5 μM): 11 ± 4.0%
Cancer cell death rate of compounds with respect to control ([4]; 10 μM): 19% and 19 ± 4.5%
Cancer cell death rate of compounds with respect to control ([4]; 20 μM): 25 ± 4.7%

O=S(=O)(F)Cc1ccccc1 [PMSF]
Expression of median p53 (A549 and Capan-1): increased expression of median p53

CCC(=C/[C@H](C)C/C=C/C(C)=C/[C@@H](C)C(=O)[C@@H](C)[C@H](O)[C@@H](C)C/C(C)=C/C(=O)O)/C=C/[C@@H]1OC(=O)C=C[C@@H]1C [leptomycin B]
SNAIL-mediated p53 reduction [5]: did not block the SNAIL-mediated p53 reduction

Source: patent US9400281B2, “Method of screening of therapeutic agents for K-Ras mutant driven cancers” (PUSAN NATIONAL UNIVERSITY INDUSTRY-UNIVERSITY COOPERATION …, priority 2008, dated 2016)
